pIC50: −log10 of the molar value.
Legend:
[1] = system: Neonatal Rat Ventricular Myocytes (NRVMs); assay: Myocyte proliferation assay (EdU assay) in neonatal rat ventricular myocytes; type: cell-based; details: growth relative to blank myocyte growth without compound added; for Avg 1 uM (average myocyte proliferation): compound 1 uM; for Avg 3 uM (average myocyte proliferation): compound 3 uM; for Avg 10 uM (average myocyte proliferation): compound 10 uM
Method: 1. Isolation of and Culture Neonatal Rat Ventricular Myocytes (NRVMs)
Ventricles from neonatal rats were separated from the atria, cut into small pieces (about 2×2 mm^2) and then dissociated in Ca2+-free HBSS containing 0.125 mg ml-1 trypsin (Gibco), 10 μg ml-1 DNase II (Sigma) and 0.1 mg ml-1 collagenase type IV (Sigma). The digestion was carried out under constant stirring at 37° C. for 5 min. The supernatant was collected with FBS (Gibco) after each digestion period. After digestion, the collected supernatant was centrifuged at 1000 g for 10 min at room temperature, and then cell pellets were resuspended in DMEM (Gibco) supplemented with 10% FBS and with 100 uM 5-bromo-2′-deoxyuridine (Sigma). The resuspended cells were passed through a cell strainer ([…], BD Falcon) and seeded onto 100-mm plastic dishes for 2 h at 37° C. in a 5% CO2 to remove fibroblasts, the supernatant was then collected and plated onto 1% gelatin (Sigma)-coated dishes. 24 h after the seeding, the medium was changed to DMEM (Gibco) containing 2% FBS (Gibco), 1% insulin-transferrin-selenium (ITS; Gibco), 1% Penicillin-Streptomycin (Gibco). After 24 hours of low serum culture, remove the medium with DMEM (Gibco) containing 6% FBS (Gibco), 1% insulin-transferrin-selenium (ITS; Gibco), 1% Penicillin-Streptomycin (Gibco), different concentrations of compounds (the compounds were pre-diluted in the medium and the drug concentration was 10 uM, 3 uM, 1 uM, fully mixed). After 36 h add Edu substrate (Invitrogen) according to the manufacturer's guidelines, and then after 12 h cell can be used.
• 2.1. Immobilization: Remove the medium and fix the cells with […] in 200 ul (whichever is covered) for 15 min and wash the cells twice with 500 ul of PBS for 5 min each time. • 2.2. Broken membrane: Add 200 ul of 0.3% Triton-X 100 (diluted in PBS) to each well, incubate for 10-15 min at room temperature (the time should not be too long), and wash the cells twice with 500 ul of PBS for 5 min each time. • 2.3. Blocking: Add 200 ul of 10% normal goat serum (diluted with 0.1% PBST) to each well, incubate for 1 h at room temperature, and wash twice with 500 ul of 0.1% PBST for 5 min each time. • 2.4. Primary antibody: dilute the primary antibody (abcam, ab8295) to blocking solution at a ratio of 1:200, add 100 ul per well, incubate for 1 h at room temperature (may be slightly longer than 2-3 h), wash the cells twice with 500 ul 0.1% PBST for 5 min each time. • 2.5. Secondary antibody: Dilute the fluorescently labeled secondary antibody (abcam, ab150117) into blocking solution at a ratio of 1:200, add 100 ul per well, incubate for 1 h at room temperature (the time should not be too long), wash the cells twice with 0.1% PBST for 5 min each time, pay attention to the whole process. Protected from light. • 2.6. Edu staining (Invitrogen C10338) • 2.6.1 Prepare Click-iT® reaction cocktail according to Table 3. It was important to add the ingredients in the order listed in the table; otherwise, the reaction would not proceed optimally. Use the Click-iT® reaction cocktail within 15 minutes of preparation.
• 2.6.2 Add 0.1 mL of Click-iT® reaction cocktail to each well containing a coverslip. Rock the plate briefly to ensure that the reaction cocktail is distributed evenly over the coverslip. • 2.6.3 Incubate the plate for 30 minutes at room temperature, protected from light. • 2.6.4 Remove the reaction cocktail, then wash the cells twice with 0.1% PBST for 5 min each time. • 2.7. DAPI staining: DAPI stain was diluted to PBS at a ratio of 1:1000, 100 ul per well, incubated for 30 min at room temperature, and the cells were washed twice with PBS for 5 min each. 3. Data Analysis
We used Molecular Devices' Image Xpress Micro Confocal for high-throughput photo and data analysis.

human HIPK1 = target: T1, human HIPK1 (Homo sapiens, UniProt Q86Z02); assay: HIPK1 enzyme assay (ADP-Glo); type: biochemical; details: ADP-Glo, ATP 5 μM; read-out: HIPK1 IC50
T1 construct: Recombinant human HIPK1 (156-555); GST (N); purchased SignalChem H03-11G; host or cells: Sf9 insect cells
Method: The ability of compounds to inhibit human HIPK1 kinase activities was determined using a commercially available ADP-Glo™ Kinase Assay kit (Promega, Cat #V9102) according to the manufacturer's protocol.
Recombinant human HIPK1 (156-555) (expressed in Sf9 insect cells with an N-terminal GST tag) was purchased from SignalChem (Cat #H03-11G). Recombinant full length human MBP (expressed in E. Coli cells with an N-terminal GST tag) was purchased from SignalChem (Cat #M42-54G). This assay, run in a 384-well plate format, is a generic method for measuring kinase activities using an ADP-Glo Kinase Assay Kit. The basic assay procedure involves two steps: (1) Enzymatic step: inhibitors are incubated with the kinase and then ATP (included in the ADP-Glo Kinase Assay Kit) and the MBP protein are added to start the enzymatic reaction; (2) Detection step: after the kinase reaction, first ADP-Glo™ Reagent is added to terminate the kinase reaction and deplete the remaining ATP. Second, the Kinase Detection Reagent is added to simultaneously convert ADP to ATP and allow the newly synthesized ATP to be measured using a luciferase/luciferin reaction. The light generated is measured using a luminometer.
Briefly, HIPK1 (4 nM) in the enzymatic buffer solutions (40 mM Tris, pH 7.5, 20 mM MgCl2, 0.1 mg/ml BSA, 50 μM DTT) were mixed with various concentrations of inhibitors (dissolved in 100% DMSO). These solutions were incubated for 30 minutes at 25° C., and subsequently a mixture of substrate peptide and ATP was added with the final peptide and ATP concentrations at 0.05 mg/ml and 5 μM, respectively. The final reaction mixture of enzyme-substrate-ATP-compound was incubated for 90 minutes at 25° C.
Afterwards ADP-Glo™ Reagent was added and the mixture was incubated at 25° C. for 60 minutes. Then Kinase Detection Reagent was added, and the final mixture was incubated at 25° C. for 60 minutes. The luminescence signal of the final solution was measured on an Envision instrument (PerkinElmer). The percent (%) inhibition at each concentration of a compound is calculated relative to the luminescence signal in the Max and Min control wells contained within each assay plate. […] The concentrations and percent inhibition values for a test compound are plotted and the concentration of the compound required to achieve 50% inhibition (IC50) is determined with a four-parameter logistic dose response equation.

T1 sequence (Q86Z02 156-555): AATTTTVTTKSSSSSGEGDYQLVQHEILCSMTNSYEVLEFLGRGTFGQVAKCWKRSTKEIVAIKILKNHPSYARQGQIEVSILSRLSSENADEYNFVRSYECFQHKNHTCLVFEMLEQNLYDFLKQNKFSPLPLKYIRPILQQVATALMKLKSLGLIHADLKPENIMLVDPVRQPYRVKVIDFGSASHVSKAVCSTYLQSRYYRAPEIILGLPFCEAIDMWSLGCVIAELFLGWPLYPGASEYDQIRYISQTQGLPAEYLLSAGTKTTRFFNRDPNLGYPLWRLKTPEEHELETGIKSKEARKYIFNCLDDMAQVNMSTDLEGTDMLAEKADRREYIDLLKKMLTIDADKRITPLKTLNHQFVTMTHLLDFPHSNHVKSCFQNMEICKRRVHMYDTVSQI

| Structure (SMILES) | Avg 1 uM (average myocyte proliferation) [1] | Avg 3 uM (average myocyte proliferation) [1] | pIC50 (human HIPK1) | Avg 10 uM (average myocyte proliferation) [1] |
| --- | --- | --- | --- | --- |
| O=C1NC(Nc2ccccc2)=N/C1=C\c1cncs1 [Example 15, (Z)-2-(phenylamino)-5-(thiazol-5-ylmethylene)-3,5-dihydro-4H-imidazol-4-one] | * (<10% growth relative to blank myocyte growth without compound added.) | ** (10%-50%) | < 5.00 | – |
| O=C1NC(Nc2ccccc2)=N/C1=C\c1ccc2nccnc2c1 [Example 16, (Z)-2-(phenylamino)-5-(quinoxalin-6-ylmethylene)-3,5-dihydro-4H-imidazol-4-one] | * (<10% growth relative to blank myocyte growth without compound added.) | * (<10% growth relative to blank myocyte growth without compound added.) | 5.00 to 6.00 | – |
| CN(C1=N/C(=C\c2ccc3c(c2)OC(F)(F)O3)C(=O)N1)c1ccccc1 [Example 17, (Z)-5-((2,2-difluorobenzo[d][1,3]dioxol-5-yl)methylene)-2-(methyl(phenyl)amino)-3,5-dihydro-4H-imidazol-4-one] | * (<10% growth relative to blank myocyte growth without compound added.) | * (<10% growth relative to blank myocyte growth without compound added.) | < 5.00 | * (<10% growth relative to blank myocyte growth without compound added.) |
| CN(C1=N/C(=C\c2ccc3c(c2)OCO3)C(=O)N1)c1cccnc1 [Example 18, (Z)-5-(benzo[d][1,3]dioxol-5-ylmethylene)-2-(methyl(pyridin-3-yl)amino)-3,5-dihydro-4H-imidazol-4-one] | * (<10% growth relative to blank myocyte growth without compound added.) | * (<10% growth relative to blank myocyte growth without compound added.) | < 5.00 | ** (10%-50%) |
| CN(CC1CC1)C1=N/C(=C\c2ccc3c(c2)OCCO3)C(=O)N1 [Example 19, (Z)-2-((cyclopropylmethyl)(methyl)amino)-5-((2,3-dihydrobenzo[b][1,4]dioxin-6-yl)methylene)-3,5-di hydro-4H-imidazol-4-one] | * (<10% growth relative to blank myocyte growth without compound added.) | * (<10% growth relative to blank myocyte growth without compound added.) | < 5.00 | * (<10% growth relative to blank myocyte growth without compound added.) |
| CN(CCN1CCOCC1)C1=N/C(=C\c2ccc3c(c2)OCO3)C(=O)N1 [Example 20, (Z)-5-(benzo[d][1,3]dioxol-5-ylmethylene)-2-(methyl(2-morpholinoethyl)amino)-3,5-dihydro-4H-imidazol-4-one] | * (<10% growth relative to blank myocyte growth without compound added.) | * (<10% growth relative to blank myocyte growth without compound added.) | < 5.00 | ** (10%-50%) |
| COc1ccccc1N(C)C1=N/C(=C\c2ccc3c(c2)OCO3)C(=O)N1 [Example 21, (Z)-5-(benzo[d][1,3]dioxol-5-ylmethylene)-2-((2-methoxyphenyl)(methyl)amino)-3,5-dihydro-4H-imidazol-4-one] | *** (>50%) | *** (>50%) | < 5.00 | ** (10%-50%) |
| O=C1NC(N(Cc2ccccc2)c2ccccc2)=N/C1=C\c1ccc2c(c1)OCO2 [Example 22, (Z)-5-(benzo[d][1,3]dioxol-5-ylmethylene)-2-(benzyl(phenyl)amino)-3,5-dihydro-4H-imidazol-4-one] | ** (10%-50%) | ** (10%-50%) | < 5.00 | ** (10%-50%) |
